{
  "source": "ChEMBL document CHEMBL4229547",
  "about": "“Design, synthesis and biological mechanisms research on 1,2,3-triazole derivatives of Jiyuan Oridonin A” (Bioorg Med Chem, 2018)",
  "key": {"MGC-803 [1]": {"test_system": "MGC-803", "test": "Induction of apoptosis in human MGC803 cells assessed as upregulation of cytochrome c levels in cytoplasm at 1.5 to 6 ug/ml after 48 hrs by Western blot method", "type": "functional, cell-based"}, "MGC-803 [2]": {"test_system": "MGC-803", "test": "Cell cycle arrest in human MGC803 cells assessed as accumulation at S phase at 3 ug/ml after 48 hrs by propidium iodide staining-based flow cytometric method (reference value: 32.5 +/- 2.25%)", "type": "functional"}, "MGC-803 [3]": {"test_system": "MGC-803", "test": "Induction of apoptosis in human MGC803 cells assessed as upregulation of p53 levels at 1.5 to 6 ug/ml after 48 hrs by Western blot method", "type": "functional, cell-based"}, "MGC-803 [4]": {"test_system": "MGC-803", "test": "Cell cycle arrest in human MGC803 cells assessed as accumulation at G0/G1 phase at 1.5 ug/ml after 48 hrs by propidium iodide staining-based flow cytometric method (reference value: 52.5 +/- 3.71%)", "type": "functional"}, "MGC-803 [5]": {"test_system": "MGC-803", "test": "Induction of apoptosis in human MGC803 cells assessed as late apoptotic cells at 3 ug/ml in presence of N-acetyl cysteine by annexin V-FITC/propidium iodide staining-based flow cytometric method (reference value: 0.1%)", "type": "functional"}, "MGC-803 [6]": {"test_system": "MGC-803", "test": "Induction of apoptosis in human MGC803 cells assessed as necrotic cells at 3 ug/ml by annexin V-FITC/propidium iodide staining-based flow cytometric method (reference value: 1%)", "type": "functional"}, "MGC-803 [7]": {"test_system": "MGC-803", "test": "Cell cycle arrest in human MGC803 cells assessed as accumulation at G2/M phase at 1.5 ug/ml after 48 hrs in presence of N-acetyl cysteine by propidium iodide staining-based flow cytometric method (reference value: 17.2 +/- 1.35%)", "type": "functional"}, "MGC-803 [8]": {"test_system": "MGC-803", "test": "Antiproliferative activity against human MGC803 cells after 48 hrs by MTT assay", "type": "functional, cell-based", "details": "MGC-803, 48 h"}, "MGC-803 [9]": {"test_system": "MGC-803", "test": "Induction of apoptosis in human MGC803 cells assessed as upregulation of cleaved caspase-9 levels after 48 hrs by Western blot method", "type": "functional, cell-based"}, "MGC-803 [10]": {"test_system": "MGC-803", "test": "Cell cycle arrest in human MGC803 cells assessed as accumulation at G0/G1 phase at 3 ug/ml after 48 hrs by propidium iodide staining-based flow cytometric method (reference value: 52.5 +/- 3.71%)", "type": "functional"}, "SMMC-7721": {"test_system": "SMMC-7721", "test": "Antiproliferative activity against human SMMC7721 cells after 48 hrs by MTT assay", "type": "functional, cell-based", "details": "SMMC-7721, 48 h"}, "MGC-803 [11]": {"test_system": "MGC-803", "test": "Induction of apoptosis in human MGC803 cells assessed as increase in cell debris after 24 hrs by inverted microscopic method", "type": "functional, cell-based"}, "ECa-109 cell line": {"test_system": "ECa-109 cell line", "test": "Antiproliferative activity against human ECA109 cells after 48 hrs by MTT assay", "type": "functional, cell-based", "details": "ECa-109, 48 h"}, "MGC-803 [12]": {"test_system": "MGC-803", "test": "Induction of apoptosis in human MGC803 cells assessed as viable cells at 1.5 ug/ml by annexin V-FITC/propidium iodide staining-based flow cytometric method (reference value: 97.6%)", "type": "functional", "details": "read-out: Activity"}, "MGC-803 [13]": {"test_system": "MGC-803", "test": "Induction of apoptosis in human MGC803 cells assessed as early apoptotic cells at 1.5 ug/ml in presence of N-acetyl cysteine by annexin V-FITC/propidium iodide staining-based flow cytometric method (reference value: 1.3%)", "type": "functional"}, "MGC-803 [14]": {"test_system": "MGC-803", "test": "Cell cycle arrest in human MGC803 cells assessed as accumulation at G2/M phase at 1.5 ug/ml after 48 hrs by propidium iodide staining-based flow cytometric method (reference value: 17.2 +/- 1.35%)", "type": "functional"}, "MGC-803 [15]": {"test_system": "MGC-803", "test": "Induction of reactive oxygen species formation in human MGC803 cells at 3 ug/ml after 5 hrs by DCFH-DA staining-based flow cytometry (reference value: 7.1%)", "type": "functional"}},
  "note": "The source made the active and inactive calls. The calls are words filed in the database; no cut-off is given here.",
  "data": [
    {"molecule": "C=C1C(=O)[C@]23[C@H](O)[C@H]1C[C@H](O)[C@H]2[C@]12CCCC(C)(C)[C@H]1C[C@H]3O[C@@H]2OCCc1cn(Cc2ccc(Cl)cc2)nn1", "values": [
      {"measurement": "Activity", "setting": "MGC-803 [1]", "value": "Active"},
      {"measurement": "Activity", "setting": "MGC-803 [2]", "value": 29.6, "unit": "%"},
      {"measurement": "Activity", "setting": "MGC-803 [3]", "value": "Active"},
      {"measurement": "Activity", "setting": "MGC-803 [4]", "value": 46.3, "unit": "%"},
      {"measurement": "Activity", "setting": "MGC-803 [5]", "value": 0, "unit": "%"},
      {"measurement": "Activity", "setting": "MGC-803 [6]", "value": 1.3, "unit": "%"},
      {"measurement": "Activity", "setting": "MGC-803 [7]", "value": 16.1, "unit": "%"},
      {"measurement": "IC50", "setting": "MGC-803 [8]", "value": 2.53, "unit": "µM"},
      {"measurement": "Activity", "setting": "MGC-803 [9]", "value": "Dose-dependent effect"},
      {"measurement": "Activity", "setting": "MGC-803 [10]", "value": 30.5, "unit": "%"},
      {"measurement": "IC50", "setting": "SMMC-7721", "value": 4.44, "unit": "µM"},
      {"measurement": "Activity", "setting": "MGC-803 [11]", "value": "Dose-dependent effect"},
      {"measurement": "IC50", "setting": "ECa-109 cell line", "value": 2.7, "unit": "µM"},
      {"measurement": "viability at 1.5 µg/mL", "setting": "MGC-803 [12]", "value": 91, "unit": "%"},
      {"measurement": "Activity", "setting": "MGC-803 [13]", "value": 4.2, "unit": "%"},
      {"measurement": "Activity", "setting": "MGC-803 [14]", "value": 26.7, "unit": "%"},
      {"measurement": "Activity", "setting": "MGC-803 [15]", "value": 24.8, "unit": "%"}
    ]}
  ]
}
